Literature values, collected in publication PMC12979414, “Ascending single-dose study of the safety, pharmacokinetics, and pharmacodynamics of CSTI-500, a novel monoamine triple reuptake inhibitor, first-in-human” (Psychopharmacology, 2025).
Like-named read-outs stand apart in the source and are kept apart here.

Experiments:
[1] = set-up: method as in Deest et al. [2021]; details: PWS patients, 6 months, doses as low as 25 mg; ref Deest et al. [2021]
[2] = clinical trials for Parkinson's disease; ref Astrup et al. [2008]
[3] = set-up: method as in Zheng et al. [2015]; details: multiple-ascending-dose study, healthy subjects; ref Zheng et al. [2015]
[4] = PET occupancy study in healthy subjects, ref Learned et al. [2012]

In the case of CN[C@H]1CC[C@@H](c2ccc(Cl)c(Cl)c2)c2ccccc21 [sertraline], the temper outbursts [1] is given as “significantly reduced the temper outbursts”.
For CCOC[C@@H]1[C@@H](c2ccc(Cl)c(Cl)c2)C[C@@H]2CC[C@H]1N2C [tesofensine], the “weight loss as an AE” value [2] is listed as “significant weight loss”.
In the case of COC[C@@H]1[C@@H](c2ccc(Cl)c(Cl)c2)C[C@@H]2CC[C@H]1N2 [GSK372475], the SERT occupancy (SERT; [4]) is given as 55-75%, the DAT occupancy (DAT; [4]) is given as 60-80% and the efficacy and tolerability (1-2 mg/d, two 10-week phase II trials in MDD patients, ref Learned et al. [2012]) is given as “neither efficacious nor well-tolerated”.
In the case of N[C@@H]1CC[C@@H](c2ccc(Cl)c(Cl)c2)c2ccccc21 [SEP-225289], the SERT occupancy (SERT; single-doses 8-16 mg, healthy volunteers, all doses, ref DeLorenzo et al. [2011]) is given as “below 20%”, the “DAT occupancies, average values” (DAT; single-doses 8-16 mg, healthy volunteers, ref DeLorenzo et al. [2011]) is given as 33-49% and the depression symptoms (phase II study in MDD patients, 8 weeks of treatment, ref Sharma et al. [2015]) is given as “no reduction of depression symptoms”.
For CN1Cc2cc(-c3ccc(N)nn3)ccc2[C@H](c2ccc3ccccc3c2)C1 [BMS-820836], the heart rate [3] is given as “linear dose-related escalation in heart rate”, the SERT occupancy (SERT; 0.5 mg/d, near steady-state, healthy subjects, ref Zheng et al. [2015]) is given as “about 80%” and the “striatal DAT occupancies” value (DAT; 0.5-2 mg/d, healthy volunteers, ref Zheng et al. [2015]) is given as 14-30%. For the same compound, the clinical efficacy (0.25-2 mg/d, treatment-resistant MDD, two phase IIb trials, ref Bhagwagar et al. [2015]) was “no clinical superiority compared to duloxetine or escitalopram treatment”.
